From patent publication US8871929B2, “Fused-imidazoyl compounds useful as antimicrobial agents” (Merck Sharp & Dohme Corp., priority 2010, dated 2014)
≈ marks a conversion by molar mass, not a printed value.

The molecules below were run on Staphylococcus aureus ATCC29213 (assay: Susceptibility testing (MIC determination), broth microdilution). Details: Mueller Hinton broth, 96-well plate, overnight incubation at 35° C., read-out: MIC Staph. aureus ATCC-29213.
Type: cell-based
Method: Compounds useful in the method of the invention were investigated for their utility as antimicrobial agents in the following assay. Susceptibility testing (MIC determinations) was performed using the standard broth microdilution methodology precisely as described in the Clinical Laboratory Standards Institute Document M7-A6; Methods for Dilution Antimicrobial Susceptibility Tests for Bacteria That Grow Aerobically; […] To perform the test, a series of 0.1 ml media in a 96-well plate is prepared with Mueller Hinton broth to which various concentrations of the test compound are added. The media are then inoculated with a standardized suspension of the test organism, Staphylococcus aureus ATCC29213. After overnight incubation at 35° C., the tests are examined and the minimal inhibitory concentration (MIC) is determined. MIC is defined as the lowest concentration of an antimicrobial agent that prevents visible growth of a microorganism in the broth microdilution susceptibility test

Compound	MIC [µg/mL]
O=C(CNc1c(-c2ccc(N3CCOCC3)nc2)nc2cccc(Cl)n12)N1CCN(c2c(Cl)cncc2Cl)CC1 [Compound 1]	0.06 (≈ 0.0997 µM)
CCN1CCc2cc(-c3nc4ccccn4c3NCC(=O)N3CCN(c4c(Cl)cncc4Cl)CC3)ccc21 [Compound 2]	0.125 (≈ 0.227 µM)
O=C(CNc1c(-c2ccc(N3CCSCC3)nc2)nc2cnccn12)N1CCN(c2c(Cl)cncc2Cl)CC1 [Compound 3]	0.125 (≈ 0.214 µM)
Cc1cccc2nc(-c3ccc(N4CCOCC4)nc3)c(NCC(=O)N3CCN(c4c(Cl)cncc4Cl)CC3)n12 [Compound 5]	0.25 (≈ 0.43 µM)
Cc1ccc2nc(-c3ccc(N4CCOCC4)nc3)c(NCC(=O)N3CCN(c4c(Cl)cncc4Cl)CC3)n2c1 [Compound 6]	0.25 (≈ 0.43 µM)
O=C(CNc1c(-c2ccc(N3CCOCC3)nc2)nc2cnccn12)N1CCN(c2c(Cl)cncc2Cl)CC1 [Compound 7]	0.4 (≈ 0.704 µM)
O=C(CNc1c(-c2ccc(N3CCCCC3)nc2)nc2cnccn12)N1CCN(c2c(Cl)cncc2Cl)CC1 [Compound 8]	0.44 (≈ 0.777 µM)
CCN1CCCc2cc(-c3nc4cnccn4c3NCC(=O)N3CCN(c4c(Cl)cncc4Cl)CC3)ccc21 [Compound 11]	0.5 (≈ 0.884 µM)
CCCN1CCc2cc(-c3nc4cnccn4c3NCC(=O)N3CCN(c4c(Cl)cncc4Cl)CC3)ccc21 [Compound 17]	2 (≈ 3.54 µM)
CCN1CCc2cc(-c3nc4cnccn4c3NCC(=O)N3CCN(c4ccccc4C#N)CC3)ccc21 [Compound 19]	4 (≈ 7.9 µM)
O=C(CNc1c(-c2cnc(N3CCCCC3)nc2)nc2cnccn12)N1CCN(c2c(Cl)cncc2Cl)CC1 [Compound 21]	4 (≈ 7.05 µM)
CCCN1CCCc2cc(-c3nc4cnccn4c3NCC(=O)N3CCN(c4c(Cl)cncc4Cl)CC3)ccc21 [Compound 25]	8 (≈ 13.8 µM)
CCN1CCc2cc(-c3nc4cnccn4c3NCC(=O)N3CCN(c4ncccc4C#N)CC3)ccc21 [Compound 26]	8 (≈ 15.8 µM)
Cc1cccc(N2CCN(C(=O)CNc3c(-c4ccc(N5CCCC5)cc4)nc4ccccn34)CC2)c1C [Compound 29]	5 (≈ 9.83 µM)
O=C(CNc1c(-c2ccc(N3CCCC3)cc2)nc2ccccn12)N1CCN(c2ccccc2Cl)CC1 [Compound 30]	5 (≈ 9.71 µM)
CN(C)c1ccc(-c2nc3ccccn3c2NCC(=O)N2CCN(c3ccccc3Cl)CC2)cc1 [Compound 31]	5 (≈ 10.2 µM)
Cc1ccccc1N1CCN(C(=O)CNc2c(-c3ccc(N4CCCC4)cc3)nc3ccccn23)CC1 [Compound 34]	5 (≈ 10.1 µM)
N#Cc1ccccc1N1CCN(C(=O)CNc2c(-c3ccc(N4CCCC4)cc3)nc3ccccn23)CC1 [Compound 35]	0.313 (≈ 0.619 µM)
N#Cc1cccnc1N1CCN(C(=O)CNc2c(-c3ccc(N4CCCC4)cc3)nc3ccccn23)CC1 [Compound 36]	0.625 (≈ 1.23 µM)
Cc1cccc(C)c1N1CCN(C(=O)CNc2c(-c3ccc(N4CCCC4)cc3)nc3ccccn23)CC1 [Compound 37]	0.5 (≈ 0.983 µM)
CSc1ccccc1N1CCN(C(=O)CNc2c(-c3ccc(N4CCCC4)cc3)nc3ccccn23)CC1 [Compound 39]	1 (≈ 1.9 µM)

Compound	MIC [µg/mL]
Cc1ccc(Cl)cc1N1CCN(C(=O)CNc2c(-c3ccc(N4CCCC4)cc3)nc3ccccn23)CC1 [Compound 40]	1 (≈ 1.89 µM)
O=C(CNc1c(-c2ccc(N3CCCC3)cc2)nc2ccccn12)N1CCN(c2ccncc2Cl)CC1 [Compound 42]	2.5 (≈ 4.84 µM)
Cc1ccccc1C1CCN(C(=O)CNc2c(-c3ccc(N4CCCC4)cc3)nc3ccccn23)CC1 [Compound 43]	8 (≈ 16.2 µM)
O=C(CNc1c(-c2ccc(N3CCCC3)cc2)nc2ccccn12)N1CCC(c2cccc3ccccc23)CC1 [Compound 44]	4 (≈ 7.55 µM)
N#Cc1cccnc1N1CCN(C(=O)CNc2c(-c3ccc(N4CCCC4)cc3)nc3cnccn23)CC1 [Compound 47]	0.625 (≈ 1.23 µM)
O=C(CNc1c(-c2ccc(N3CCCC3)cc2)nc2cnccn12)N1CCC(c2cccc3ccccc23)CC1 [Compound 52]	5 (≈ 9.42 µM)
CN(C)c1ccc(-c2nc3ccccn3c2NCC(=O)N2CCN(c3ncccc3C#N)CC2)cc1 [Compound 55]	6 (≈ 12.5 µM)
Cc1cccc(C)c1N1CCN(C(=O)CNc2c(-c3ccc(N(C)C)cc3)nc3ccccn23)CC1 [Compound 56]	2 (≈ 4.14 µM)
CN(C)c1ccc(-c2nc3cnccn3c2NCC(=O)N2CCC(c3cccc4ccccc34)CC2)cc1 [Compound 62]	8 (≈ 15.9 µM)
O=C(CNc1c(-c2ccc(N3CCCC3)cc2)nc2cnccn12)N1CCN(c2ccccc2C(F)(F)F)CC1 [Compound 72]	8 (≈ 14.6 µM)
O=C(CNc1c(-c2ccc(N3CCOCC3)cc2)nc2ccccn12)N1CCN(c2c(Cl)cncc2Cl)CC1 [Compound 73]	0.09 (≈ 0.159 µM)
Cc1ccn2c(NCC(=O)N3CCN(c4c(Cl)cncc4Cl)CC3)c(-c3ccc(N4CCOCC4)cc3)nc2c1 [Compound 74]	0.06 (≈ 0.103 µM)
Cc1cccc2nc(-c3ccc(N4CCOCC4)cc3)c(NCC(=O)N3CCN(c4c(Cl)cncc4Cl)CC3)n12 [Compound 76]	0.03 (≈ 0.0517 µM)
O=C(CNc1c(-c2ccc(N3CCOCC3)cc2)nc2ccc(C(F)(F)F)cn12)N1CCN(c2c(Cl)cncc2Cl)CC1 [Compound 77]	0.06 (≈ 0.0946 µM)
Cc1ccc2nc(-c3ccc(N4CCOCC4)cc3)c(NCC(=O)N3CCN(c4c(Cl)cncc4Cl)CC3)n2c1 [Compound 78]	0.125 (≈ 0.215 µM)
O=C(CNc1c(-c2ccc(N3CCOCC3)cc2)nc2cccc(Cl)n12)N1CCN(c2c(Cl)cncc2Cl)CC1 [Compound 79]	0.06 (≈ 0.0998 µM)
O=C(CNc1c(-c2ccc(N3CCOCC3)cc2)nc2cccc(C(F)(F)F)n12)N1CCN(c2c(Cl)cncc2Cl)CC1 [Compound 80]	0.25 (≈ 0.394 µM)
O=C(CNc1c(-c2ccc(N3CCOCC3)cc2)nc2ccc(Cl)cn12)N1CCN(c2c(Cl)cncc2Cl)CC1 [Compound 81]	0.25 (≈ 0.416 µM)
O=C(CNc1c(-c2ccc(N3CCOCC3)cc2)nc2cc(C(F)(F)F)ccn12)N1CCN(c2c(Cl)cncc2Cl)CC1 [Compound 82]	0.125 (≈ 0.197 µM)
O=C(CNc1c(-c2ccc(N3CCOCC3)cc2)nc2ccc(F)cn12)N1CCN(c2c(Cl)cncc2Cl)CC1 [Compound 83]	0.125 (≈ 0.214 µM)

Further lines, results first:

MIC [µg/mL]	Compound
0.46 (≈ 0.833 µM)	O=C(CNc1c(-c2ccc(N3CCCC3)nc2)nc2cnccn12)N1CCN(c2c(Cl)cncc2Cl)CC1 [Compound 9]
0.5 (≈ 0.903 µM)	CN1CCOc2cc(-c3nc4cnccn4c3NCC(=O)N3CCN(c4c(Cl)cncc4Cl)CC3)ccc21 [Compound 10]
0.5 (≈ 0.95 µM)	CN(C)c1ccc(-c2nc3cnccn3c2NCC(=O)N2CCN(c3c(Cl)cncc3Cl)CC2)cn1 [Compound 12]
0.96 (≈ 1.74 µM)	CN1CCCc2cc(-c3nc4cnccn4c3NCC(=O)N3CCN(c4c(Cl)cncc4Cl)CC3)ccc21 [Compound 13]
1 (≈ 1.73 µM)	CC(C)N1CCCc2cc(-c3nc4cnccn4c3NCC(=O)N3CCN(c4c(Cl)cncc4Cl)CC3)ccc21 [Compound 14]
1 (≈ 1.77 µM)	CC(C)N1CCc2cc(-c3nc4cnccn4c3NCC(=O)N3CCN(c4c(Cl)cncc4Cl)CC3)ccc21 [Compound 15]
2 (≈ 3.87 µM)	CCc1ccc(-c2nc3cnccn3c2NCC(=O)N2CCN(c3c(Cl)cncc3Cl)CC2)s1 [Compound 16]
3 (≈ 5.82 µM)	CCc1ccc(-c2nc3cnccn3c2NCC(=O)N2CCN(c3c(Cl)cccc3Cl)CC2)s1 [Compound 18]
8 (≈ 14.9 µM)	Cn1ccc2cc(-c3nc4cnccn4c3NCC(=O)N3CCN(c4c(Cl)cncc4Cl)CC3)ccc21 [Compound 22]
8 (≈ 16 µM)	CCc1ccc(-c2nc3cnccn3c2NCC(=O)N2CCN(c3c(Cl)cccc3Cl)CC2)o1 [Compound 23]
8 (≈ 15 µM)	CC(C)N1CCCc2cc(-c3nc4cnccn4c3NCC(=O)N3CCN(c4ccccc4C#N)CC3)ccc21 [Compound 24]
0.06 (≈ 0.109 µM)	O=C(CNc1c(-c2ccc(N3CCCC3)cc2)nc2ccccn12)N1CCN(c2c(Cl)cncc2Cl)CC1 [Compound 27]
0.31 (≈ 0.591 µM)	CN(C)c1ccc(-c2nc3ccccn3c2NCC(=O)N2CCN(c3c(Cl)cncc3Cl)CC2)cc1 [Compound 28]
0.19 (≈ 0.345 µM)	CCN1CCc2cc(-c3nc4cnccn4c3NCC(=O)N3CCN(c4c(Cl)cncc4Cl)CC3)ccc21 [Compound 33]
0.313 (≈ 0.57 µM)	O=C(CNc1c(-c2ccc(N3CCCC3)cc2)nc2ccccn12)N1CCN(c2c(Cl)cccc2Cl)CC1 [Compound 41]
0.313 (≈ 0.618 µM)	N#Cc1ccccc1N1CCN(C(=O)CNc2c(-c3ccc(N4CCCC4)cc3)nc3cnccn23)CC1 [Compound 46]
5 (≈ 9.48 µM)	CSc1ccccc1N1CCN(C(=O)CNc2c(-c3ccc(N4CCCC4)cc3)nc3cnccn23)CC1 [Compound 49]
2.5 (≈ 4.72 µM)	Cc1ccc(Cl)cc1N1CCN(C(=O)CNc2c(-c3ccc(N4CCCC4)cc3)nc3cnccn23)CC1 [Compound 50]
5 (≈ 9.67 µM)	O=C(CNc1c(-c2ccc(N3CCCC3)cc2)nc2cnccn12)N1CCN(c2ccncc2Cl)CC1 [Compound 51]
0.25 (≈ 0.478 µM)	CN(C)c1ccc(-c2nc3ccccn3c2NCC(=O)N2CCN(c3c(Cl)cccc3Cl)CC2)cc1 [Compound 57]
6 (≈ 12.5 µM)	CN(C)c1ccc(-c2nc3cnccn3c2NCC(=O)N2CCN(c3ccccc3C#N)CC2)cc1 [Compound 58]
6 (≈ 12.5 µM)	CN(C)c1ccc(-c2nc3cnccn3c2NCC(=O)N2CCN(c3ncccc3C#N)CC2)cc1 [Compound 59]
8 (≈ 15.9 µM)	Cc1ccc(Cl)cc1N1CCN(C(=O)CNc2c(-c3ccc(N(C)C)cc3)nc3cnccn23)CC1 [Compound 60]
0.25 (≈ 0.477 µM)	CN(C)c1ccc(-c2nc3cnccn3c2NCC(=O)N2CCN(c3c(Cl)cccc3Cl)CC2)cc1 [Compound 61]
1 (≈ 1.91 µM)	CC(C)c1ccc(-c2nc3cnccn3c2NCC(=O)N2CCN(c3c(Cl)cccc3Cl)CC2)cc1 [Compound 65]
8 (≈ 16.7 µM)	CC(C)c1ccc(-c2nc3cnccn3c2NCC(=O)N2CCN(c3ccccc3C#N)CC2)cc1 [Compound 66]
4 (≈ 8.32 µM)	CC(C)c1ccc(-c2nc3cnccn3c2NCC(=O)N2CCN(c3ncccc3C#N)CC2)cc1 [Compound 67]
4 (≈ 7.85 µM)	CCc1ccc(-c2nc3cnccn3c2NCC(=O)N2CCN(c3c(Cl)cccc3Cl)CC2)cc1 [Compound 70]
